Where a name gives a salt, the structure may show the parent alone.
What follows are molecules tested against human Factor Xa (Homo sapiens, UniProt P00742) (assay: In vitro assay for inhibition of Factor Xa (2), fluorogenic assay). Conditions: substrate Rhodamine 110, bis-(CBZ-glycylglycyl-L-arginine amide 10 μM), Ki calculated from IC50.
Assay type: biochemical
Method: In Vitro Assay for Inhibition of Factor Xa (2)
All other compounds of the present invention were tested for their Factor Xa inhibitory activity as determined in vitro by their ability to inhibit human Factor Xa in a fluorogenic assay, using Rhodamine 110, bis-(CBZ-glycylglycyl-L-arginine amide as the fluorogenic substrate. Compounds were diluted from a 10 mM stock solution in dimethylsulfoxide at appropriate concentrations. Assay was performed at room temperature using buffer consisting of: 50 mM Tris-HCl, 150 mM NaCl, 5 mM CaCl2, pH 7.4. containing human Factor Xa (final conc. Of 0.0003U.ml−1). Compound and enzyme were preincubated for 15 min prior to addition of the substrate (final conc. of 10 μM). The reaction was stopped after 3 hrs with the addition of H-D-PHE-PRO-ARG-Chloromethylketone. […] To obtain IC50 values the data were analysed using ActivityBase® and XLfit®.
Calculation of Ki values:
Ki=IC50/(1+[Substrate]/Km)
The Ki value for the above assay can be obtained by dividing the IC50 value by 1.6.

Chain of human Factor Xa (P00742 235-488 limits assumed): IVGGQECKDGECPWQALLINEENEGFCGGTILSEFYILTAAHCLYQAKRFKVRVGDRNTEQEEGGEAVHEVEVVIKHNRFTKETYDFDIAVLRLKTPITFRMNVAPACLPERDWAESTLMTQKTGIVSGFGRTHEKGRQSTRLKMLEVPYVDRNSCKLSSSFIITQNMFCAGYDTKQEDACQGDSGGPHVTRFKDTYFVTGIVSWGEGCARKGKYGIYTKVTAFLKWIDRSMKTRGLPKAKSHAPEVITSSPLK
Chain of human Factor Xa (P00742 41-179 partner limits assumed): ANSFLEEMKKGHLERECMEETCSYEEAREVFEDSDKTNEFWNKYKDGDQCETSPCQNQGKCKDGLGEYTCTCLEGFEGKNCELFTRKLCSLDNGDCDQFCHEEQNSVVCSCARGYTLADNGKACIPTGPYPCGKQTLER

| Compound | Ki [nM] |
| --- | --- |
| Cc1noc(C)c1-c1ccc(N2CC[C@H](NS(=O)(=O)c3ccc4cc(Cl)ccc4c3)C2=O)c(F)c1 [Example 72, 6-Chloro-N-{(3S)-1-[4-(3,5-dimethylisoxazol-4-yl)-2-fluorophenyl]-2-oxopyrrolidin-3-yl}naphthalene-2-sulfonamide] | < 20 |
| O=C1[C@@H](NS(=O)(=O)c2ccc3cc(Cl)ccc3c2)CCN1c1ccc(-c2cc[n+]([O-])cc2)cc1F [Example 76, 6-Chloro-N-{(3S)-1-[2-fluoro-4-(1-oxidopyridin-4-yl)phenyl]-2-oxopyrrolidin-3-yl}naphthalene-2-sulfonamide] | < 20 |
| O=C1[C@@H](NS(=O)(=O)c2ccc3cc(Cl)ccc3c2)CCN1c1ccc(-c2ncccn2)cc1F [Example 81, 6-Chloro-N-[(3S)-1-(2-fluoro-4-pyrimidin-2-ylphenyl)-2-oxopyrrolidin-3-yl]naphthalene-2-sulfonamide] | < 1000 |
| CS(=O)(=O)c1ccccc1-c1ccc(N2CC[C@H](N(CC(=O)O)S(=O)(=O)/C=C/c3ccc(Cl)s3)C2=O)nc1 [Example 48, {[(E)-2-(5-Chlorothien-2-yl)(ethenyl]sulfonyl}((3S)-1-{5-[2-(methylsulfonyl)phenyl]pyridin-2-yl}-2-oxopyrrolidin-3-yl)amino]acetic Acid] | < 10 |
| CC(C)(C)OC(=O)N([C@H]1CCN(c2ccc(-c3ccccc3S(C)(=O)=O)cc2F)C1=O)S(=O)(=O)/C=C/c1ccc(Cl)s1 [Example 44, tert-Butyl [(E)-2-(5-chlorothien-2-yl)ethenyl]sulfonly{(3S)-1-[3-fluoro-2′-(methylsulfonyl)-1,1′-biphenyl-4yl]-2-oxopyrrolidin-3-yl}carbamate] | < 10 |
| C/C(=C\S(=O)(=O)N[C@H]1CCN(c2ccc(-c3ccccc3S(N)(=O)=O)cc2F)C1=O)c1ccc(Cl)s1 [Example 16, 4′-[(3S)-3-({[(1E)-2-(5-Chlorothien-2-yl)prop-1-enyl]sulfonyl}amino)-2-oxopyrrolidin-1-yl]-3′-fluoro-1,1′-biphenyl-2-sulfonamide] | < 10 |
| Cc1cscc1-c1ccc(N2CC[C@H](NS(=O)(=O)c3ccc4cc(Cl)ccc4c3)C2=O)c(F)c1 [Example 69, 6-Chloro-N-{(3S)-1-[2-fluoro-4-(4-methylthien-3-yl)phenyl]-2-oxopyrrolidin-3-yl}naphthalene-2-sulfonamide] | < 200 |
| NC(=O)CN([C@H]1CCN(c2ccc(C(N)=O)cc2F)C1=O)S(=O)(=O)/C=C/c1ccc(Cl)s1 [Example 133, 4-[(3S)-3-((2-Amino-2-oxoethyl){[(E)-2-(5-chlorothien-2-yl)ethenyl]sulfonyl}amino)-2-oxopyrrolidin-1yl]-3-fluorobenzamide] | < 10 |
| O=C1[C@@H](NS(=O)(=O)c2ccc3cc(Cl)ccc3c2)CCN1c1ccc(-c2cccnc2Cl)cc1F [Example 78, 6-Chloro-N-{(3S)-1-[4-(2-chloropyridin-3-yl)-2-fluorophenyl]-2-oxopyrrolidin-3-yl}naphthalene-2-sulfonamide] | < 10 |
| O=C1[C@@H](NS(=O)(=O)c2ccc3cc(Cl)ccc3c2)CCN1c1ccc(-n2cccn2)cc1F [Example 129, 6-Chloro-N-{(3S)-1-[2-fluoro-4-(1H-pyrazol-1-yl)phenyl]-2-oxopyrrolidinyl}-2-naphthalenesulfonamide] | < 10 |
| O=C1[C@@H](NS(=O)(=O)/C=C/c2ccc(Cl)s2)CCN1c1ccc(-c2ccncc2Cl)cc1F [Example 80, (E)-N-{(3S)-1-[4-(3-Chloropyridin-4-yl)-2-fluorophenyl]-2-oxopyrrolidin-3-yl}-2-(5-chlorothien-2-yl)ethenesulfonamide] | < 10 |
| C/C(=C\S(=O)(=O)N[C@H]1CCN(c2ccc(I)cn2)C1=O)c1ccc(Cl)s1 [Example 136] | < 10 |
| CS(=O)(=O)c1ccccc1-c1ccc(N2CC[C@H](N(CCN3CCOCC3)S(=O)(=O)/C=C/c3ccc(Cl)s3)C2=O)c(F)c1 [Example 45, (E)-2-(5-Chlorothien-2-yl)-N-{(3S)-1-[3-fluoro-2′-(methylsulfonyl)-1,1′-biphenyl-4-yl]-2-oxopyrrolidin-3-yl}-N-(2-morpholin-4-ylethyl)ethenesulfonamide] | < 10 |
| CC(O)c1ccc(N2CC[C@H](NS(=O)(=O)/C=C/c3ccc(Cl)s3)C2=O)c(F)c1 (stereo partly drawn) [Example 135, (E)-2-(5-Chlorothien-2-yl)-N-{(3S)-1-[2-fluoro-4-(1-hydroxyethyl)phenyl]-2-oxopyrrolidin-3-yl}ethenesulfonamide] | < 200 |
| O=C1[C@@H](NS(=O)(=O)c2ccc3cc(Cl)ccc3c2)CCN1c1ccc(-c2ccsc2)cc1F [Example 67, 6-Chloro-N-[(3S)-1-(2-fluoro-4-thien-3-ylphenyl)-2-oxopyrrolidin-3-yl]naphthalene-2-sulfonamide] | < 200 |
| CS(=O)(=O)c1ccccc1-c1ccc(N2CC[C@H](N(CC(N)=O)S(=O)(=O)/C=C/c3ccc(Cl)s3)C2=O)nc1 [Example 43, 2-[{[(E)-2-(5-Chlorothien-2-yl)ethenyl]sulfonyl}((3S)-1-{5-[2-(methylsulfonyl)phenyl]pyridin-2-yl}-2-oxopyrrolidin-3-yl)amino]acetamide] | < 10 |
| O=C1[C@@H](NS(=O)(=O)/C=C/c2ccc(Cl)s2)CCN1c1ccc(-c2ccccc2[N+](=O)[O-])cc1F [Example 18, (E)-2-(5-Chlorothien-2-yl)-N-[(3S)-1-(3-fluoro-2′-nitro-1,1′-biphenyl-4-yl)-2-oxopyrrolidin-3-yl]ethenesulfonamide] | < 10 |
| Cn1cnc(-c2ccc(N3CC[C@H](NS(=O)(=O)c4ccc5cc(Cl)ccc5c4)C3=O)c(F)c2)c1 [Example 84, 6Chloro-N-{(3S)-1-[2-fluoro-4-(1-methyl-1H-imidazol-4-yl)phenyl]-2-oxopyrrolidin-3-yl}naphthalene-2-sulfonamide Formate] | < 20 |
| O=C1[C@@H](NS(=O)(=O)c2ccc3cc(Cl)ccc3c2)CCN1c1ccccc1F [Example 101, 6-Chloro-N-[(3S)-1-(2-fluorophenyl)-2-oxopyrrolidin-3-yl]naphthalene-2-sulfonamide] | < 1000 |
| N#Cc1ncccc1-c1ccc(N2CC[C@H](NS(=O)(=O)c3ccc4cc(Cl)ccc4c3)C2=O)c(F)c1 [Example 79, 6-Chloro-N-{(3S)-1-[4-(2-cyanopyridin-3-yl)-2-fluorophenyl-]-2-oxopyrrolidin-3-yl}naphthalene-2-sulfonamide] | < 10 |
| C/C(=C\S(=O)(=O)N[C@H]1CCN(c2ccc(NS(C)(=O)=O)cc2F)C1=O)c1ccc(Cl)s1 [Example 137, (1E)-2-(5-Chlorothien-2-yl)-N-((3S)-1-{2-fluoro-4-[(methylsulfonyl)amino]phenyl}-2-oxopyrrolidin-3-yl)prop-1-ene-1-sulfonamide] | < 20 |
| NC(=O)c1ccc(N2CC[C@H](NS(=O)(=O)/C=C/c3ccc(Cl)s3)C2=O)nc1 [Example 106, 6-[(3S)-3-({[(E)-2-(5-Chlorothien-2-yl)ethenyl]sulfonyl}amino)-2-oxopyrrolidin-1-yl]nicotinamide] | < 200 |
| O=C1[C@@H](NS(=O)(=O)c2ccc(-c3ccc(Cl)s3)s2)CCN1c1ccc(I)cc1F [Example 92, 5′-Chloro-N-[(3S)-1-(2-fluoro-4-iodophenyl)-2-oxopyrrolidin-3-yl]-2,2′-bithiophene-5-sulfonamide] | < 10 |
| O=C1[C@@H](NS(=O)(=O)c2ccc3cc(Cl)ccc3c2)CCN1c1ccc(-c2ccc(Cl)s2)cc1F [Example 71, 6-Chloro-N-{(3S)-1-[4-(5-chlorothien-2-yl)-2-fluorophenyl]-2-oxopyrrolidin-3-yl}naphthalene-2-sulfonamide] | < 200 |
| C/C(=C\S(=O)(=O)N[C@H]1CCN(c2ccc(-c3ccccc3S(C)(=O)=O)cc2F)C1=O)c1ccc(Cl)s1 [Example 39, (1E)-2-(5-Chlorothien-2-yl)-N-{(3S)-1-[3-fluoro-2′-(methylsulfonyl)-1,1′-biphenyl-4yl]-2-oxopyrrolidin-3-yl}prop-1-ene-1-sulfonamide] | < 10 |
| N#Cc1ccc(N2CC[C@H](NS(=O)(=O)/C=C/c3ccc(Cl)s3)C2=O)c(F)c1 [Example 98, (E)-2-(5-Chlorothien-2-yl)-N-[(3S)-1-(4-cyano-2-fluorophenyl)-2-oxopyrrolidin-3-yl]ethenesulfonamide] | < 200 |
| CN(C)C(=O)c1ccccc1-c1ccc(N2CC[C@H](NS(=O)(=O)/C=C/c3ccc(Cl)s3)C2=O)nc1 [Example 25, 2-{6-[(3S)-3-({[(E)-2-(5-Chlorothien-2-yl)ethenyl]sulfonyl}amino)-2-oxopyrrolidin-1-yl]pyridin-3-yl}-N,N-dimethylbenzamide] | < 20 |
| COc1ccncc1-c1ccc(N2CC[C@H](NS(=O)(=O)c3ccc4cc(Cl)ccc4c3)C2=O)c(F)c1 [Example 62, 6-Chloro-N-{(3S)-1-[2-fluoro-4-(4-methoxypyridin-3-yl)phenyl]-2-oxopyrrolidin-3-yl}naphthalene-2-sulfonamide] | < 10 |
| COc1ccc(-c2ccc(N3CC[C@H](NS(=O)(=O)c4ccc5cc(Cl)ccc5c4)C3=O)c(F)c2)cn1 [Example 58, 6-Chloro-N-{(3S)-1-[2-fluoro-4-(6-methoxypyridin-3-yl)phenyl]-2-oxopyrrolidin-3-yl}naphthalene-2-sulfonamide] | < 200 |
| O=C1[C@H](NS(=O)(=O)c2cc3ccc(Cl)cc3s2)CCN1c1ccc([N+](=O)[O-])cc1F [Example 94, 6-Chloro-N-[(3R)-1-(2-fluoro-4-nitrophenyl)-2-oxopyrrolidinyl]-1-benzothiophene-2-sulfonamide] | < 200 |
